Drawing on PubChem BioAssay (NCI), this text covers TGI for 6 molecules.

Each structure is given as a SMILES string.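 96-well plates; 48 h exposure; 5 concentrations. Endpoints by linear interpolation between flanking doses. Not reached: highest tested concentration assigned. TGI: concentration producing complete growth inhibition.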

Among the test systems are M14 melanoma; SR leukemia; ACHN renal; EKVX NSCLC; NCI-H23 lung; RXF 393 renal; SF-295 CNS; SK-MEL-2 melanoma; MDA-MB-231 breast; SF-268 CNS; CAKI-1 renal; SK-MEL-5 melanoma; OVCAR-3 ovarian; 786-0 renal; UACC-62 melanoma; NCI/ADR-RES ovarian; PC-3 prostate; CCRF-CEM leukemia; SNB-75 CNS; A498 renal.
Assay in all cases: DTP human tumour cell line panel, 48 h

With `Cc1cccc(C)c1Nc1nc(C)c(C(=O)CC(=O)C(=O)Nc2c(C(C)C)cccc2C(C)C)s1`, the TGI in the experiment with M14 melanoma, in the experiment with SR leukemia, with ACHN renal, with EKVX NSCLC, in the experiment with NCI-H23 lung and in the experiment with RXF 393 renal was greater than 100 µM in each case. The TGI in the experiment with SF-295 CNS, in the experiment with SK-MEL-2 melanoma, in the experiment with MDA-MB-231 breast, in the experiment on SF-268 CNS, with CAKI-1 renal and with SK-MEL-5 melanoma was greater than 100 µM in each case. Also, the TGI in the experiment with OVCAR-3 ovarian, with 786-0 renal, in the experiment with UACC-62 melanoma, in the experiment with NCI/ADR-RES ovarian and in the experiment on PC-3 prostate was greater than 100 µM each time.
Turning to `S=C(N1CCN(c2cccc(Cl)c2)CC1)N1CCN(c2cccc(Cl)c2)CC1`, the TGI was greater than 100 µM in the experiment with M14 melanoma; 32.4 µM with SR leukemia; greater than 100 µM with ACHN renal; greater than 100 µM in the experiment on EKVX NSCLC; greater than 100 µM in the experiment with NCI-H23 lung; greater than 100 µM with RXF 393 renal. The TGI is greater than 100 µM in the experiment on SF-295 CNS; greater than 100 µM with SK-MEL-2 melanoma; 58.8 µM in the experiment with MDA-MB-231 breast; greater than 100 µM with SF-268 CNS; 27.8 µM with CCRF-CEM leukemia; 83.7 µM in the experiment on CAKI-1 renal. Moreover, the TGI with SK-MEL-5 melanoma, in the experiment with OVCAR-3 ovarian, with 786-0 renal, in the experiment on UACC-62 melanoma, with NCI/ADR-RES ovarian and with PC-3 prostate was greater than 100 µM each time.
As to `C(=Nc1ccc(-c2nc3ccccc3[nH]2)cc1)c1ccco1`, the TGI with M14 melanoma, with SR leukemia, with ACHN renal, in the experiment with EKVX NSCLC, in the experiment on NCI-H23 lung and with SNB-75 CNS was greater than 100 µM each time. Further, the TGI in the experiment with RXF 393 renal is greater than 100 µM; with SK-MEL-2 melanoma it was greater than 100 µM; in the experiment with SF-268 CNS it was greater than 100 µM; in the experiment on CCRF-CEM leukemia, greater than 100 µM; in the experiment with A498 renal it was greater than 100000 nM; with CAKI-1 renal, greater than 100 µM. Besides, the TGI in the experiment with SK-MEL-5 melanoma, with OVCAR-3 ovarian, in the experiment on 786-0 renal, with UACC-62 melanoma, with NCI/ADR-RES ovarian and in the experiment with PC-3 prostate was greater than 100 µM each time.
Take `CO[C@@H]1C[C@H](OC(N)=O)[C@@H]2C=C[C@@H]3/C=C(C)/C=C/[C@@H](C)[C@H](/C(C)=C/[C@@H](C)NC(C)=O)OC(=O)/C=C/C=C(C)\C=C\[C@]3(C)[C@@H]2C1`: the TGI was found to be 0.912 µM with M14 melanoma; 5.11 µM in the experiment with SR leukemia; 0.613 µM in the experiment with ACHN renal; 0.843 µM in the experiment with EKVX NSCLC; 2.84 µM in the experiment on NCI-H23 lung; 0.0826 µM with SNB-75 CNS. The TGI in the experiment with RXF 393 renal stood at 0.455 µM; in the experiment on SF-295 CNS, 0.111 µM; in the experiment on SK-MEL-2 melanoma it was 2.12 µM; in the experiment on SF-268 CNS it was 1.4 µM; with CCRF-CEM leukemia, 7.59 µM; in the experiment on A498 renal it was 86.7 nM. The TGI in the experiment on CAKI-1 renal is 0.167 µM; with SK-MEL-5 melanoma it was 0.604 µM; with OVCAR-3 ovarian, 0.251 µM; with 786-0 renal it was 2.74 µM; with UACC-62 melanoma, 0.292 µM; with NCI/ADR-RES ovarian, 2.69 µM. In addition, the TGI in the experiment on PC-3 prostate worked out at 1.58 µM.
`CCCC1(CCC)c2cc(/C=N\O)ccc2-c2ccc(-c3ccc(C(C)(C)C)cc3)cc21`: the TGI in the experiment on M14 melanoma was greater than 100 µM; with SR leukemia, 73.1 µM; in the experiment on ACHN renal, greater than 100 µM; in the experiment on EKVX NSCLC, greater than 100 µM; with NCI-H23 lung, greater than 100 µM; in the experiment with SNB-75 CNS it was greater than 100 µM. Further, the TGI with SF-295 CNS is greater than 100 µM; in the experiment on SK-MEL-2 melanoma it was 99.3 µM; in the experiment with MDA-MB-231 breast it was 39.7 µM; with SF-268 CNS, greater than 100 µM; in the experiment with CCRF-CEM leukemia it was 68.8 µM; with CAKI-1 renal, greater than 100 µM. Moreover, the TGI with SK-MEL-5 melanoma is greater than 100 µM; in the experiment on OVCAR-3 ovarian, 55 µM; with 786-0 renal, greater than 100 µM; in the experiment with NCI/ADR-RES ovarian, greater than 100 µM; with PC-3 prostate, greater than 100 µM.
As to `O=C1CSC2=NC3=C(CSC/C3=C\c3ccccc3)C(c3ccccc3)N12` (stereo unspecified), the TGI in the experiment with M14 melanoma, in the experiment on SR leukemia, in the experiment with ACHN renal, with EKVX NSCLC, in the experiment with NCI-H23 lung and in the experiment on SNB-75 CNS was greater than 100 µM throughout. Also, the TGI in the experiment with SF-295 CNS, in the experiment on SK-MEL-2 melanoma, in the experiment with MDA-MB-231 breast, in the experiment with SF-268 CNS, with CCRF-CEM leukemia and in the experiment on SK-MEL-5 melanoma was greater than 100 µM in each case. The TGI in the experiment on OVCAR-3 ovarian, with 786-0 renal, in the experiment on UACC-62 melanoma, in the experiment on NCI/ADR-RES ovarian and in the experiment with PC-3 prostate was greater than 100 µM in each case.

A word on the TGI: it is the concentration giving total growth inhibition. Low readings indicate more potent growth arrest, high ones less potent growth arrest.
